Laboratory results published in US11725011B2, “Bicyclic urea kinase inhibitors and uses thereof” (The Broad Institute, Inc., priority 2016, dated 2023).

Experiments:
PIK3CD = PIK3CD (Homo sapiens (Human), UniProt O00329); experiment: KINOMEscan; assay type: binding; settings: 1 uM
BRAF = BRAF (Homo sapiens (Human), UniProt P15056); experiment: KINOMEscan; assay type: binding; settings: 1 uM
EGFR (L858R, T790M) = EGFR (L858R, T790M) (Homo sapiens (Human), UniProt P00533, L858R/T790M); experiment: KINOMEscan; assay type: binding; settings: 1 uM
[1] = molecular target: JAK3 (JH1domain-catalytic) (Homo sapiens (Human), UniProt P52333); experiment: KINOMEscan; assay type: binding; settings: 1 uM
WEE1 = WEE1 (Homo sapiens (Human), UniProt P30291); experiment: KINOMEscan; assay type: binding; settings: 1 uM
MAP3K4 = MAP3K4 (Homo sapiens (Human), UniProt Q9Y6R4); experiment: KINOMEscan; assay type: binding; settings: 1 uM
TAK1 = TAK1 (Homo sapiens (Human), UniProt O43318); experiment: KINOMEscan; assay type: binding; settings: 1 uM
IRAK1 = IRAK1 (Homo sapiens (Human), UniProt P51617); experiment: KINOMEscan; assay type: binding; settings: 1 uM
SIK1 = SIK1 (Homo sapiens (Human), UniProt P57059); experiment: Percent activity against SIK1 at 1 μM; assay type: biochemical
GRK4 = GRK4 (Homo sapiens (Human), UniProt P32298); experiment: KINOMEscan; assay type: binding; settings: 1 uM
NEK7 = NEK7 (Homo sapiens (Human), UniProt Q8TDX7); experiment: KINOMEscan; assay type: binding; settings: 1 uM
CHEK2 = CHEK2 (Homo sapiens (Human), UniProt O96017); experiment: KINOMEscan; assay type: binding; settings: 1 uM
[2] = molecular target: ABL1 (F317I)-phosphorylated (Homo sapiens (Human), UniProt P00519, F317I); experiment: KINOMEscan; assay type: binding; settings: 1 uM
EPHA2 = EPHA2 (Homo sapiens (Human), UniProt P29317); experiment: KINOMEscan; assay type: binding; settings: 1 uM
NLK = NLK (Homo sapiens (Human), UniProt Q9UBE8); experiment: KINOMEscan; assay type: binding; settings: 1 uM
[3] = molecular target: ABL1 (T315I)-nonphosphorylated (Homo sapiens (Human), UniProt P00519, T315I); experiment: KINOMEscan; assay type: binding; settings: 1 uM
PRKR = PRKR (Homo sapiens (Human), UniProt P19525); experiment: KINOMEscan; assay type: binding; settings: 1 uM
PKN1 = PKN1 (Homo sapiens (Human), UniProt Q16512); experiment: KINOMEscan; assay type: binding; settings: 1 uM
FLT3 (R834Q) = FLT3 (R834Q) (Homo sapiens (Human), UniProt P36888, R834Q); experiment: KINOMEscan; assay type: binding; settings: 1 uM
TAOK1 = TAOK1 (Homo sapiens (Human), UniProt Q7L7X3); experiment: KINOMEscan; assay type: binding; settings: 1 uM
FLT3 (N841I) = FLT3 (N841I) (Homo sapiens (Human), UniProt P36888, N841I); experiment: KINOMEscan; assay type: binding; settings: 1 uM
[4] = molecular target: JAK1 (JH2 domain-pseudokinase) (Homo sapiens (Human), UniProt P23458); experiment: KINOMEscan; assay type: binding; settings: 1 uM
SYK = SYK (Homo sapiens (Human), UniProt P43405); experiment: KINOMEscan; assay type: binding; settings: 1 uM
MET (Y1235D) = MET (Y1235D) (Homo sapiens (Human), UniProt P08581, Y1235D); experiment: KINOMEscan; assay type: binding; settings: 1 uM
PDGFRA = PDGFRA (Homo sapiens (Human), UniProt P16234); experiment: KINOMEscan; assay type: binding; settings: 1 uM
MEK5 = MEK5 (Homo sapiens (Human), UniProt Q13163); experiment: KINOMEscan; assay type: binding; settings: 1 uM
DYRK1A = DYRK1A (Homo sapiens (Human), UniProt Q13627); experiment: KINOMEscan; assay type: binding; settings: 1 uM
LIMK1 = LIMK1 (Homo sapiens (Human), UniProt P53667); experiment: KINOMEscan; assay type: binding; settings: 1 uM
[5] = molecular target: ABL1 (Y253F)-phosphorylated (Homo sapiens (Human), UniProt P00519, Y253F); experiment: KINOMEscan; assay type: binding; settings: 1 uM
LYN = LYN (Homo sapiens (Human), UniProt P07948); experiment: KINOMEscan; assay type: binding; settings: 1 uM
IKK-beta = IKK-beta (Homo sapiens (Human), UniProt O14920); experiment: KINOMEscan; assay type: binding; settings: 1 uM
MLK3 = MLK3 (Homo sapiens (Human), UniProt Q16584); experiment: KINOMEscan; assay type: binding; settings: 1 uM
PIK3CA (M1043I) = PIK3CA (M1043I) (Homo sapiens (Human), UniProt P42336, M1043I); experiment: KINOMEscan; assay type: binding; settings: 1 uM
PIK3CA (I800L) = PIK3CA (I800L) (Homo sapiens (Human), UniProt P42336, I800L); experiment: KINOMEscan; assay type: binding; settings: 1 uM
NEK5 = NEK5 (Homo sapiens (Human), UniProt Q6P3R8); experiment: KINOMEscan; assay type: binding; settings: 1 uM
BLK = BLK (Homo sapiens (Human), UniProt P51451); experiment: KINOMEscan; assay type: binding; settings: 1 uM
PRKD2 = PRKD2 (Homo sapiens (Human), UniProt Q9BZL6); experiment: KINOMEscan; assay type: binding; settings: 1 uM
MTOR = MTOR (Homo sapiens (Human), UniProt P42345); experiment: KINOMEscan; assay type: binding; settings: 1 uM
PAK1 = PAK1 (Homo sapiens (Human), UniProt Q13153); experiment: KINOMEscan; assay type: binding; settings: 1 uM
STK35 = STK35 (Homo sapiens (Human), UniProt Q8TDR2); experiment: KINOMEscan; assay type: binding; settings: 1 uM

SIK1, sequence (P57059 whole entry): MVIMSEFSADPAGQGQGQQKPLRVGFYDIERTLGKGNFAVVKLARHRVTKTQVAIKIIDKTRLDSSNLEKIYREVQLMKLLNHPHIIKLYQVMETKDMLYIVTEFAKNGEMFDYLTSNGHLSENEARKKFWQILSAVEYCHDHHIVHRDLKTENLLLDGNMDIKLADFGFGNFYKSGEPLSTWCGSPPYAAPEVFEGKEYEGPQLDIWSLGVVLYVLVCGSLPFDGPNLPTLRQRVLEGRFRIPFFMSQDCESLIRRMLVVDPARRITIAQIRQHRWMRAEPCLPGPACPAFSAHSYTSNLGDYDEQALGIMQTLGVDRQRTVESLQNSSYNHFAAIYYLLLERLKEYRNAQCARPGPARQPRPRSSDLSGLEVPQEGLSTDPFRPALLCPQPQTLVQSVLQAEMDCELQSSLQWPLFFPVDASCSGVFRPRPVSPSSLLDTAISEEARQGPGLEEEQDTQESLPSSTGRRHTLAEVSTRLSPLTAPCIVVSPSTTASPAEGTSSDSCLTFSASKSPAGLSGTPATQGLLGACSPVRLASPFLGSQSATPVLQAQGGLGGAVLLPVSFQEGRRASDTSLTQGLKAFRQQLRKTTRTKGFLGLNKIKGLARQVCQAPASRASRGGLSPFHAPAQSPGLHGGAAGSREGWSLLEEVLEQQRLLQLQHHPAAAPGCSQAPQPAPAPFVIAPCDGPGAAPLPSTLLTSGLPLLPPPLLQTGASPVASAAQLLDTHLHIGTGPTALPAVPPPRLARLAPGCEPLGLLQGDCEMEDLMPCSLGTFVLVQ
PDGFRA, sequence (P16234 24-1089): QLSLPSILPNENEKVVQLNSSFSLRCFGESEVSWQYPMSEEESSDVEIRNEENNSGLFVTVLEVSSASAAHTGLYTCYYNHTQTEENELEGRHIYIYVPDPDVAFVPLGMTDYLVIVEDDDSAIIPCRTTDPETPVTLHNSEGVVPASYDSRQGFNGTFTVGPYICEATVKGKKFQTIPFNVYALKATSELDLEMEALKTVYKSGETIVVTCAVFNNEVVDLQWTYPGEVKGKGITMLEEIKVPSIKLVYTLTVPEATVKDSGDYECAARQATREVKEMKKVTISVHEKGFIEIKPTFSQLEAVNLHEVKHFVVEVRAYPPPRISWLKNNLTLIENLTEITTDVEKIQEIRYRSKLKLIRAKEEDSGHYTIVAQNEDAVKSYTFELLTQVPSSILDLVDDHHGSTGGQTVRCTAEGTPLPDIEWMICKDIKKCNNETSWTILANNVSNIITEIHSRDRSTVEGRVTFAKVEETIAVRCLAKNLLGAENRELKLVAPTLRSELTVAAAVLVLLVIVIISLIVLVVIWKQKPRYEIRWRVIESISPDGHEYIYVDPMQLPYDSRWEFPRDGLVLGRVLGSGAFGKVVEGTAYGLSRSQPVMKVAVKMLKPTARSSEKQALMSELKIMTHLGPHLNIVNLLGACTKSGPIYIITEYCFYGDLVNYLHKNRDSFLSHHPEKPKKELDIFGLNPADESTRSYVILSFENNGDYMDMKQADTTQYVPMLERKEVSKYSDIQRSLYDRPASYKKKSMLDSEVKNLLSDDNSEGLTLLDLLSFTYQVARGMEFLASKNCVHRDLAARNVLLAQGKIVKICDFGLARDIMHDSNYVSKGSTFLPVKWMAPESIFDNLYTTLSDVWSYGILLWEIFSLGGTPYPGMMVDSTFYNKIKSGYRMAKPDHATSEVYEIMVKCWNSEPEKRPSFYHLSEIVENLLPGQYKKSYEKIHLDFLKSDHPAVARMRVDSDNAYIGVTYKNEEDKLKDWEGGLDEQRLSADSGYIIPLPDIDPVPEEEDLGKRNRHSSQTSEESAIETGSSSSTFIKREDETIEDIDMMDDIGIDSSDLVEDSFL
EPHA2, sequence (P29317 24-976): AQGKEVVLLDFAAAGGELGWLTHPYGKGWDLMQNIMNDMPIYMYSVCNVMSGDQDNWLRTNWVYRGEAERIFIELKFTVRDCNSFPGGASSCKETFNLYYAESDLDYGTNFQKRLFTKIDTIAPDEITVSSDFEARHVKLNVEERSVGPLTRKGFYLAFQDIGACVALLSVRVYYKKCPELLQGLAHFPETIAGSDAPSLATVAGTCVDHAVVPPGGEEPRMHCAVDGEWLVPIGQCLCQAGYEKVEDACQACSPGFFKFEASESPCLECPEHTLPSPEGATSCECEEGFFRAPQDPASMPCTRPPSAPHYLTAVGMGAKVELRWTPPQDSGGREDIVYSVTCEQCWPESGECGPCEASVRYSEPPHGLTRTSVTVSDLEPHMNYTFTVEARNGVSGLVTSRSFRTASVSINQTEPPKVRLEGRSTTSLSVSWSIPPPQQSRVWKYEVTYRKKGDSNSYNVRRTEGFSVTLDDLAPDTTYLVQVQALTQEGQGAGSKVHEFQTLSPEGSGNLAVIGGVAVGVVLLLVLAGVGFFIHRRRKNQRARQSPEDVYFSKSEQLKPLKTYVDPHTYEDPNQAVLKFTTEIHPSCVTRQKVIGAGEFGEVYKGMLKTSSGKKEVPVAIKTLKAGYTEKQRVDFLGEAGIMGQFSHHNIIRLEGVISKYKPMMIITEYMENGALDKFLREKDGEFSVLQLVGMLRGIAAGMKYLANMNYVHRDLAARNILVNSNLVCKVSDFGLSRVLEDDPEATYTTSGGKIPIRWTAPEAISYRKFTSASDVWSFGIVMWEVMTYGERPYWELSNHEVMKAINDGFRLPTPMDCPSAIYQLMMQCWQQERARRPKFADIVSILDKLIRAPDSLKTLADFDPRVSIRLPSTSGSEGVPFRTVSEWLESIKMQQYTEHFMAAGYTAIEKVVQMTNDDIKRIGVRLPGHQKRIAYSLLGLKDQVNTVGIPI
NEK5, sequence (Q6P3R8 whole entry): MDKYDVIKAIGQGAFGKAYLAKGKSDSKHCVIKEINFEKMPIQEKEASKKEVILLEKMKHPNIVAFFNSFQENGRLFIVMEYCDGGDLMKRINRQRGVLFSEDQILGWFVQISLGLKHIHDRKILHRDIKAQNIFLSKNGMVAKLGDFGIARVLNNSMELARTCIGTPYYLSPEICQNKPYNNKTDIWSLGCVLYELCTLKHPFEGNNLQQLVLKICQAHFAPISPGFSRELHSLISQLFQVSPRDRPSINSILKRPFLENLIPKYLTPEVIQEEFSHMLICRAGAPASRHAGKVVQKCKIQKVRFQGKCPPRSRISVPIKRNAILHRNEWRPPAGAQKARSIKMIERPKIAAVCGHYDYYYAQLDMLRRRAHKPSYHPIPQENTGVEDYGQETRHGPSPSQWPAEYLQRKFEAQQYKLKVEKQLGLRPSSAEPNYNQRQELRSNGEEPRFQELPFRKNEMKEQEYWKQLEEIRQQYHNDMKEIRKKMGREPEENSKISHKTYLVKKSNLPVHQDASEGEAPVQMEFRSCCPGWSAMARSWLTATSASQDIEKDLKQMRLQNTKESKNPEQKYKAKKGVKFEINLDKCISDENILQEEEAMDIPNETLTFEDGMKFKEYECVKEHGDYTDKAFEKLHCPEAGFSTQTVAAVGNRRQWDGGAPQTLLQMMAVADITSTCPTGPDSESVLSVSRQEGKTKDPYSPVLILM
TAK1, sequence (O43318 whole entry): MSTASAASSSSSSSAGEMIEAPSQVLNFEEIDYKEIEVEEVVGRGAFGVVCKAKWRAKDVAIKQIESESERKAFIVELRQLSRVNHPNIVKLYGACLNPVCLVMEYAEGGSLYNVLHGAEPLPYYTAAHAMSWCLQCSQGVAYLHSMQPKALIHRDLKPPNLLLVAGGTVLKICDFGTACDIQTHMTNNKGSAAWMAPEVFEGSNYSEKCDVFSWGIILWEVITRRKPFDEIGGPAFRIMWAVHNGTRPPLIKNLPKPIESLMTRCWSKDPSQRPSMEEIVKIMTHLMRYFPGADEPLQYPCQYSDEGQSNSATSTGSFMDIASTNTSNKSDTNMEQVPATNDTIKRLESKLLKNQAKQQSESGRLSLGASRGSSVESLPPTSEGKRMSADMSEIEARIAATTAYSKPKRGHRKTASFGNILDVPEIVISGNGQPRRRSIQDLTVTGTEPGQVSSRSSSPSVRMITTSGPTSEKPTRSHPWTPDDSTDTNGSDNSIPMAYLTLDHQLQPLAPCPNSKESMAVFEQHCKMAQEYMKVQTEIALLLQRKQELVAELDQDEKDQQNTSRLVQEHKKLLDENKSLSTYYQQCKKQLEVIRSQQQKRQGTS
WEE1, sequence (P30291 whole entry): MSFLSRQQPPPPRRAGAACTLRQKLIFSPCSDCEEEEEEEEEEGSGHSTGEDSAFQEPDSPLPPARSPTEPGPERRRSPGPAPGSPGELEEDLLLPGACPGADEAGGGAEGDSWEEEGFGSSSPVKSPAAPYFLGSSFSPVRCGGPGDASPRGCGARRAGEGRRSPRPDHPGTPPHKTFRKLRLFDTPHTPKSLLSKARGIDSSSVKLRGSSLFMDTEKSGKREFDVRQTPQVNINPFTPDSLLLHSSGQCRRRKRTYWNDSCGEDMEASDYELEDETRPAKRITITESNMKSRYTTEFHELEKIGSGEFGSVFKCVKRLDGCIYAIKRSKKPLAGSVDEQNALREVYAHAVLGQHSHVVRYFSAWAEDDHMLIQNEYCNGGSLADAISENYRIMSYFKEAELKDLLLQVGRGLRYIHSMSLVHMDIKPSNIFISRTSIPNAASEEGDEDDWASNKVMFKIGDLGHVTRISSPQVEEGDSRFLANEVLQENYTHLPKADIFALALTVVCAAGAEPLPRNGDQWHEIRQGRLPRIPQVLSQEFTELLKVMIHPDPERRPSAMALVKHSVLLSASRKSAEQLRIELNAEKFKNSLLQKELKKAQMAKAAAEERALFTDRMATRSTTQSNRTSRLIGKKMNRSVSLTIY
NEK7, sequence (Q8TDX7 whole entry): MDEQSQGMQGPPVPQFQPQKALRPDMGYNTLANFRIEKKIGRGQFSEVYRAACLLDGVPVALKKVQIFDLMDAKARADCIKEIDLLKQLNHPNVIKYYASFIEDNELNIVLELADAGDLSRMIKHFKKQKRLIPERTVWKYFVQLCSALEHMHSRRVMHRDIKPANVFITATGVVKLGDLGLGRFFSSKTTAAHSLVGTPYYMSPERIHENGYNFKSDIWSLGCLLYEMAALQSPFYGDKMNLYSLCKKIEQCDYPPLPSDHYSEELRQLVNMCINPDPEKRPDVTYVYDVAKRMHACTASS

## COc1ccc(N2C(=O)N(c3c(C)cccc3C)Cc3cnc(Nc4ccc(N5CCN(C)CC5)cc4)nc32)c(OC)c1 [HG-11-136-01]
PIK3CD
  KINOMEscan PIK3CD: 72
BRAF
  KINOMEscan BRAF: 26
EGFR (L858R, T790M)
  KINOMEscan EGFR (L858R, T790M): 1.7
[1]
  KINOMEscan JAK3 (JH1domain-catalytic): 0
WEE1
  KINOMEscan WEE1: 69
MAP3K4
  KINOMEscan MAP3K4: 16
TAK1
  KINOMEscan TAK1: 11
IRAK1
  KINOMEscan IRAK1: 4.4
SIK1; 1 μM
  Enzyme activity at 1 μM (%) SIK1: 19.1%
SIK1; compound at 1 μM, approximate Km for ATP
  SIK1 % ACTIVITY: 19.1%
GRK4
  KINOMEscan GRK4: 26
NEK7
  KINOMEscan NEK7: 100
CHEK2
  KINOMEscan CHEK2: 46
[2]
  KINOMEscan ABL1 (F317I)-phosphorylated: 1.3
EPHA2
  KINOMEscan EPHA2: 0.6
NLK
  KINOMEscan NLK: 7.6
[3]
  KINOMEscan ABL1 (T315I)-nonphosphorylated: 0
PRKR
  KINOMEscan PRKR: 73
PKN1
  KINOMEscan PKN1: 95
FLT3 (R834Q)
  KINOMEscan FLT3 (R834Q): 48
TAOK1
  KINOMEscan TAOK1: 1
FLT3 (N841I)
  KINOMEscan FLT3 (N841I): 11
[4]
  KINOMEscan JAK1 (JH2 domain-pseudokinase): 8.1
SYK
  KINOMEscan SYK: 1.2
MET (Y1235D)
  KINOMEscan MET (Y1235D): 61
PDGFRA
  KINOMEscan PDGFRA: 0.5
MEK5
  KINOMEscan MEK5: 0.1
DYRK1A
  KINOMEscan DYRK1A: 30
LIMK1
  KINOMEscan LIMK1: 0.05
[5]
  KINOMEscan ABL1 (Y253F)-phosphorylated: 0.15
LYN
  KINOMEscan LYN: 0
IKK-beta
  KINOMEscan IKK-beta: 80
MLK3
  KINOMEscan MLK3: 28
PIK3CA (M1043I)
  KINOMEscan PIK3CA (M1043I): 64
PIK3CA (I800L)
  KINOMEscan PIK3CA (I800L): 94
NEK5
  KINOMEscan NEK5: 98
BLK
  KINOMEscan BLK: 0.1
PRKD2
  KINOMEscan PRKD2: 3.6
MTOR
  KINOMEscan MTOR: 83
PAK1
  KINOMEscan PAK1: 3.7
STK35
  KINOMEscan STK35: 49
